In the test the test system is patients with anterior ST-segment elevation myocardial infarction undergoing PCI. As to the kind of experiment: Clinical study of caldaret in patients undergoing PCI: SPECT measurements and cardiac serum markers. Conditions: for Infarct size (% of the left ventricle): continuous intravenous 48 hours started about 30 minutes before PCI; for Infarct size (% of the left ventricle) / EDV (left ventricular end-diastolic volume) / ESV (left ventricular end-systolic volume) / LVEF (left ventricular ejection fraction): SPECT at day 7; for Infarct size (% of the left ventricle) / Serum marker CK / Serum marker TnT / EDV (left ventricular end-diastolic volume) / ESV (left ventricular end-systolic volume) / LVEF (left ventricular ejection fraction): TIMI flow grade 0 or 1; for Serum marker CK / Serum marker TnT / EDV (left ventricular end-diastolic volume) / ESV (left ventricular end-systolic volume) / LVEF (left ventricular ejection fraction): continuous intravenous 48 hours; for Serum marker CK: AUC of CK at days 0 to 3; for Serum marker TnT: AUC of TnT at days 0 to 5. The test is classed as in vivo. The method, then: Three hundred and eighty-seven patients with ΣST elevation of 10 mm or more undergoing PCI were divided into 3 groups: a caldaret non-administration group; a 61.5 mg caldaret administration group (57.5 mg in terms of 5-methyl-2-(1-piperazinyl)benzenesulfonic acid) (low-dose group); and a 184.6 mg caldaret administration group (172.5 mg in terms of 5-methyl-2-(1-piperazinyl)benzenesulfonic acid) (high-dose group). To these patients, administration of placebo (the caldaret non-administration group) or caldaret (the low-dose group and the high-dose group) was initiated about 30 minutes before PCI was performed. Placebo or caldaret was continuously administered intravenously for 48 hours. At day 7 after administration (the initiation day of adminstration=day 0 after administration, and hereinafter the same), the infarct size, the left ventricular end-systolic volume (ESV), the left ventricular end-diastolic volume (EDV) and the left ventricular ejection fraction (LVEF) were measured by SPECT and the cardiac serum markers were measured. Incidentally, as for the serum markers, AUC of TnT at days 0 to 5 after administration and AUC of CK at days 0 to 3 after administration were measured.
Hereinafter, the measurement results in 247 patients with TIMI flow grade 0 or 1 diagnosed with anterior ST-segment elevation myocardial infarction (88 patients in the low-dose group, 70 patients in the high-dose group and 89 patients in the caldaret non-administration group) are shown.

The mark [1] stands for this setting: high-dose group, 184.6 mg caldaret.
Where [2] appears, read: low-dose group, 61.5 mg caldaret.

Consider one molecule from US20070270409A1, “Medicament for Preventing and/or Treating Ischemic Cardiovascular Disease” (Mitsubishi Pharma Corporation, priority 2004, published 2007).

Each structure is given as a SMILES string.

`Cc1ccc(N2CCNCC2)c(S(=O)(=O)O)c1.O` [caldaret, 5-methyl-2-(1-piperazinyl)benzenesulfonic acid monohydrate]: the “All the measurement parameters compared with the non-administration group” value (359 patients with anterior ST-segment elevation myocardial infarction regardless of the TIMI flow grade, low-dose and high-dose groups) was “improving tendency”. Under setting [1], the “Infarct size (% of the left ventricle)” value is reported as 25.7 (b) % of the left ventricle, the “Serum marker CK” value is listed as 1157 (*) IU/I, the “Serum marker TnT” value was 4.3 mg/L and the “EDV (left ventricular end-diastolic volume)” value turned out to be 134.1 mL. Also, under setting [1], the “ESV (left ventricular end-systolic volume)” value was found to be 78.0 mL and the “LVEF (left ventricular ejection fraction)” value was 38.1 (*) %. Under setting [2], the “Infarct size (% of the left ventricle)” value is on record as 24.4 (a) % of the left ventricle, the “Serum marker CK” value is listed as 1144 (*) IU/I, the “Serum marker TnT” value was 5 mg/L and the “EDV (left ventricular end-diastolic volume)” value amounted to 138.4 mL. Besides, under setting [2], the “ESV (left ventricular end-systolic volume)” value turned out to be 80.7 mL and the “LVEF (left ventricular ejection fraction)” value is 36.6%. Besides, for the setting “patient with anterior ST-segment elevation myocardial infarction undergoing percutaneous coronary intervention, overall conclusion”, the “Effect on myocardial injury and myocardial function” value was “can alleviate myocardial injury and preserve myocardial function”.
